Source: US20260000632A1, “STRUCTURALLY MODIFIED FATTY ACIDS FOR IMPROVING GLYCEMIC CONTROL AND TREATING INFLAMMATORY BOWEL DISEASE” (Northsea Therapeutics B.V., priority 2018, published 2026)

Assays:
active GLP-1 = experiment: Active GLP-1 during oral glucose tolerance test (OGTT) and at 24 h in lean male SPD rats; assay type: in vivo, rat
Procedure: (§1) To establish the acute effects of oral administration of Compound A and Compound B upon active GLP-1 and insulin concentrations, lean (about 300 g) male Sprague-Dawley (SPD) rats were divided into groups (n=6-8) and fed 74 and 84 mg/kg body weight of Compound A or Compound B respectively, either with or without concurrent administration of a dipeptidyl peptidase 4 (DPP-4) inhibitor 60 minutes prior to an oral glucose tolerance test (OGTT) as outlined below. Parallel groups receiving either corn oil alone (corn oil+vehicle, n=10) or corn oil and a DPP-4 inhibitor (“DPP-4 i”) (corn oil+ (DPP-4 i), n=10) were included as controls. The DPP-4 inhibitor was linagliptin.
(§2) A second oral dose of 74 and 84 mg/kg bodyweight of Compound A or Compound B respectively was administered at 240 minutes and ad lib feeding was initiated. A second dose of DPP-4 inhibitor was administered at 480 mins prior to lights out. Blood samples were collected at 24 h for measurement of active GLP-1 and insulin. All values are mean, figures depict mean values (SEM).

plasma insulin = experiment: Plasma insulin at 24 h in lean male SPD rats; assay type: in vivo, rat; settings: Compound A 74 mg/kg or Compound B 84 mg/kg oral, non-significant
Procedure: as §1, §2

[1] = system: B6.V-Lepob/Jrj mice (ob/ob); experiment: Glucose tolerance (0-120 mins) after 28-day treatment in ob/ob mice; assay type: in vivo, mouse; settings: 28 days
Procedure: This study was carried out to assess the effects of chronic treatment with Compound B or Compound A on glucose tolerance in a T2DM rodent model.
For assessing the effects of Compound B, B6.V-Lepob/Jrj mice (ob/ob) mice were administered Compound B at one of 2 doses, 125 and 250 mg/kg for 28 days. […] After the oral glucose load, plasma glucose was measured at multiple time points from and AUC (0-120 mins) for glucose was calculated.

[2] = system: DSS-induced colitis C56BL/6J mice; experiment: DSS-induced colitis mouse model (body weight, colon length, survival, histology); assay type: in vivo; settings: for Difference in weight loss between control and treated group / Survival rate 7 days after colitis was induced: 1.5% DSS; for Survival rate 7 days after colitis was induced: C56BL/6J mice (control 50%)
From the text: The dextran sodium sulphate-induced (DSS)-induced colitis model is well known in the art as a reproducible chemical induction of intestinal inflammation animal model. See, e.g., Eichele et al., World J Gastroenterol, 2017, 23(33):6016-6029; Randhawa et al., Korean J. Physiol. Pharmacol. (2014) 18:279-288; Jurjus et al., J. Pharmacol. Toxicol., Methods, 2004, 50:81-92; Gaudio et al., Dig. Dis. Sci., 1999, 44:1458-1475. The DSS-induced colitis model morphologically and symptomatically resembles epithelial damage seen in human IBD, and thus has become the most extensively employed experimental model of intestinal inflammation. Okayasu et al., Gastroenterology, 1990, 98:694-702; Kawada et al., World J. Gastroenterol. 2007, 13:5581-5593. The DSS-induced colitis model is most similar to ulcerative colitis in humans, but also has many similarities to Crohn's disease.
DSS is a water soluble, negatively charged sulfated polysaccharide with a highly variable molecular weight ranging from 5 to 1400 kDa. Murine colitis results from administration of about 1% to 3% DSS to the drinking water of a mouse strain susceptible to DSS-induced colitis. Without being bound by theory, the sulfated polysaccharide may not directly induce intestinal inflammation, but may instead act as a direct chemical toxin to colonic epithelium resulting in epithelial cell injury. It is thought that DSS disrupts the intestinal epithelial monolayer lining, leading to the entry of luminal bacteria and associated antigens into the mucosa and allowing the dissemination of proinflammatory intestinal contents into underlying tissue. […] Perse et al., J. Biomed. Biotechnol., 2012:718617.
The C56BL/6J mouse is a strain susceptible to DSS-induced colitis. To evaluate the efficacy and dosage of Compound B in treatment of DSS-induced colitis, inflammation was induced in 30 9-week old C56BL/6J mice by adding 1.5% DSS to the drinking water for 7 days. The mice were fed a standard chow diet that consisted of 30 weight percent wheat. The mice were divided into three groups of 10, and for each day of DSS administration each group was administered via oral gavage either (1) 100 μL corn oil per day (Control), (2) 126 mg/kg Compound B (dissolved in 100 μL corn oil) per day (“Compound B-Low” or “Compound B-L”), or (3) 252 mg/kg Compound B (dissolved in 100 μL corn oil) per day (“Compound B-High” or “Compound B-H”). Following the 7-day period of DSS induction, mice were sacrificed and their intestinal tissue was used for histopathological and gene expression analysis.
To assess the efficacy of Compound B in the treatment of DSS-induced colitis in mice, the body weight of mice was monitored. Weight loss is an indicator of colitis severity.
To assess the efficacy of Compound B in the treatment of DSS-induced colitis in mice, colon length of test mice was measured. Colon length correlates inversely with inflammation.
Histopathological analysis was performed on sections of formalin-fixed paraffin embedded tissue after hematoxylin and eosin (H&E) staining. Colonic samples were analyzed by histopathology for assignment of scores for colitis activity as described in Neurath et al., J. Exp. Med., 2002, 195:1129-1143. Briefly, the degrees of inflammation and epithelial and mucosal injury on microscopic cross-sections of the colon were graded semi-quantitatively from 0 to 4. For inflammation, a score of 0=no evidence for inflammation; 1=low level of inflammation with scattered infiltrating mononuclear cells (1-2 foci only); 2=moderate inflammation with multiple foci; 3=high level of inflammation with increased vascular density and marked wall thickening; and 4=maximal severity of inflammation with transmural leukocyte infiltration and loss of goblet cells. For injury, a score of 0=no epithelial injury; 1=occasional epithelial lesion; 2=1-2 foci of ulcerations; and 3=extensive ulcerations. […]

[3] = high dose, 252 mg/kg per day, 7 days 1.5% DSS

CC/C=C\C/C=C\C/C=C\C/C=C\C/C=C\CCCCSC(CC)(CC)C(=O)O [Compound B, 2-ethyl-2-((5Z,8Z,11 Z,14Z,17Z)-icosa-5,8,11,14,17-pentaenylthio)butanoic acid]
Increase in active GLP-1 (AUC 0-60 mins) versus corn oil+vehicle (active GLP-1; Compound B 84 mg/kg oral in combination with DPP4 inhibitor (linagliptin), OGTT, p<0.05): > 2 fold | Effect on active GLP-1 concentration at 24 h versus corn oil+vehicle (active GLP-1; in combination with DPP4 inhibitor, Compound A 74 mg/kg or Compound B 84 mg/kg oral, two doses): significantly (p<0.01) increased | Increase in plasma insulin concentration at 24 h versus corn oil+vehicle and corn oil+DPP4 inhibitor (plasma insulin; compound alone): 25% | Increase in plasma insulin concentration at 24 h versus corn oil+vehicle and corn oil+DPP4 inhibitor (plasma insulin; in combination with DPP4 inhibitor): 40% | AUC (0-120 mins) glucose ([1]; 250 mg/kg once-daily oral gavage): potent and highly significant (p<0.001) reduction | Glucose tolerance after 2 g/kg oral glucose load ([1]; both doses, 125 and 250 mg/kg once-daily oral gavage): improved glucose tolerance | Difference in weight loss between control and treated group ([2]; 126 mg/kg per day (Compound B-Low) oral gavage, C56BL/6J mice): statistically significant after 7 days | Difference in weight loss between control and treated group ([2]; 252 mg/kg per day (Compound B-High) oral gavage, C56BL/6J mice): statistically significant after 6 days | Body weight loss compared to control ([2]; 126 and 252 mg/kg per day oral gavage, 7 days 1.5% DSS, C56BL/6J mice): dose-dependent reduction in weight loss | Histology of colon cross-sections in treated mice ([2]; 126 and 252 mg/kg per day, 7 days 1.5% DSS): dose-dependent attenuation of inflammatory infiltrates and edema | Colon length compared to control ([2]; both low (126 mg/kg) and high (252 mg/kg) doses per day, 7 days 1.5% DSS, C56BL/6J mice): significant increase in colon length | Survival rate 7 days after colitis was induced ([2]; high dose, 252 mg/kg per day oral gavage): 100% | Histological cross-sections of colon, morphology [2, 3]: almost complete rescue | Inflammation and epithelial and mucosal injury versus untreated mice [2, 3]: lower | Histological scores of colon versus untreated mice ([2]; high dose, 252 mg/kg per day, 7 days 1.5% DSS, H&E): significantly lower | Survival rate 7 days after colitis was induced ([2]; low dose, 126 mg/kg per day oral gavage): 90%
